Reference: US10071992B2, “Diacylglycerol acyl transferase 2 inhibitors” (Pfizer Inc., priority 2016, dated 2018)

How the values were obtained:
human DGAT2 (hDGAT2) = human DGAT2 (hDGAT2) (Homo sapiens (Human), UniProt Q96PD7); assay: In vitro DGAT2 assay, determination of IC50 values for DGAT2 inhibitors; assay type: biochemical
Description: Recombinant baculovirus for the FLAG-tagged hDGAT2 was generated in SF9 insect cells using Bac-to-Bac baculovirus expression system (Invitrogen) according to the manufacturer's protocol. For the expression of hDGAT2, SF9 cells (20 L) grown in Sf90011 media were infected with hDGAT2 baculovirus at a multiplicity of infection of 1 in a Wave Bioreactor System 20/50P wave bag (GE Healthcare). After 40 hours of infection, the cells were then harvested by centrifugation at 5,000×g. The cell pellets were washed by resuspending in phosphate buffered saline (PBS) and collected by centrifugation at 5,000×g. The cell paste was flash frozen in liquid N2 and stored at −80° C. until needed. All operations below were at 4° C. unless otherwise noted. The cells were resuspended in lysis buffer (50 mM Tris-HCl, pH 8.0, 250 mM sucrose) including 1 mM ethylenediaminetetraacetic acid (EDTA) and the complete protease inhibitor cocktail (Roche Diagnostics) at a ratio of 3 ml buffer per 1 g cell paste. The cells were lysed by dounce homogenizer. The cell debris was removed by centrifugation at 1,000×g for 20 min, and the supernatant was centrifuged at 100,000×g for 1 hour. The resulting pellet was rinsed three times by filling ultracentrifuge tubes to the top with ice cold PBS before decanting. The washed pellet was resuspended with gentle stirring for 1 hour in lysis buffer containing 8 mM 3-[(3-cholamidopropyl)dimethylammonio]-1-propanesulfonate (CHAPS) at a ratio of 1 mL buffer per 1 g of original cell paste and centrifuged again at 100,000×g for 1 hour. The resulting supernatant was aliquotted, flash frozen in liquid N2, and stored at −80° C. until use.
To 1 μL of compounds dissolved in 100% DMSO and spotted at the bottom of each well, 5 μL of 0.04% bovine serum albumin (BSA) (fatty acid free, Sigma Aldrich) was added and the mixture was incubated at room temperature for 15 minutes. hDGAT2 membrane fractions were diluted in 100 mM Hepes-NaOH, pH 7.4, 20 mM MgCl2 containing 200 nM methyl arachidonyl fluorophosphonate (Cayman Chemical; dried from ethyl acetate stock solution under argon gas and dissolved in DMSO as 5 mM stock). 10 μL of this enzyme working solution was added to the plates and incubation continued for 2 hours at room temperature. DGAT2 reactions were initiated by the addition of 4 μL of substrates containing 30 μM [1-^14C]decanoyl-CoA (custom-synthesized by Perkin Elmer, 50 mCi/mmol) and 125 μM 1,2-didecanoyl-sn-glycerol (Avanti Polar Lipids) dissolved in 12.5% acetone. The reaction mixtures were incubated at room temperature for 40 min and the reactions were stopped by addition of 5 μL of 1% H3PO4. After the addition of 45 μL MicroScint-E (Perkin-Elmer), plates were sealed with Top Seal-A covers (Perkin-Elmer) and phase partitioning of substrates and products was achieved using a HT-91100 microplate orbital shaker (Big Bear Automation, Santa Clara, Calif.). Plates were centrifuged at 2,000×g for 1 minute in an Allegra 6R Centrifuge (Beckman Coulter) and then were sealed again with fresh covers before reading in a 1450 Microbeta Wallac Trilux Scintillation Counter (Perkin Elmer). DGAT2 activity was measured by quantifying the generated product [^14C]tridecanoylglycerol in the upper organic phase.
Inhibitors were tested at eleven different concentrations to generate IC50 values for each compound.

DGAT2 = DGAT2 (Homo sapiens (Human), UniProt Q96PD7); assay: IC50 values for DGAT2 inhibitors in human hepatocytes; assay type: cell-based; conditions: geometric mean, N=10; cryopreserved human hepatocytes, DGAT1 inhibitor at 3 μM present, [1,3-14C]-glycerol incorporation
Description: After 24 hours overnight recovery period, the cells were overlayed with media containing 250 μg/ml Matrigel (BD Biosciences, San Jose, Calif.). The following day, media was aspirated and replaced with serum-free Williams Media E (Life Technologies, Grand Island, N.Y.) containing 400 μM sodium dodecanoate (Sigma-Aldrich, St. Louis, Mo.). […] After separation, radiolabeled lipids were visualized using a Molecular Dynamics' PhosphorImager system.

[1] = Metabolic clearance in HLM (hepatic clearance profile); assay type: in vitro ADME; conditions: human, human liver microsomes, read-out: Clint, app in HLM
[2] = geometric mean, hDGAT2 membrane fraction, [1-14C]decanoyl-CoA and 1,2-didecanoyl-sn-glycerol
[3] = Table 3, comparison with WO2015140658 Example 19.21

human DGAT2 (hDGAT2), sequence (Q96PD7 whole entry): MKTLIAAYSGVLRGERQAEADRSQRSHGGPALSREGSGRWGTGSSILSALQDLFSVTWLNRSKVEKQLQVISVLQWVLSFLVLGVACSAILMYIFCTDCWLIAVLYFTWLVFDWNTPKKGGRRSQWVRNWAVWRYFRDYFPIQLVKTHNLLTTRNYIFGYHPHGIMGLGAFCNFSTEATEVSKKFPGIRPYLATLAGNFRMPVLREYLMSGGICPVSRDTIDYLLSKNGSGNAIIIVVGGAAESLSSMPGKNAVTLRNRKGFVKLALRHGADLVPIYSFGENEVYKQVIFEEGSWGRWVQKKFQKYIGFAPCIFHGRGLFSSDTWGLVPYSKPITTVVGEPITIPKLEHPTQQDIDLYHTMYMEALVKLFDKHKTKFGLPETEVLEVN
DGAT2, sequence (Q96PD7 whole entry): as above

IC50 (human DGAT2 (hDGAT2); [2])	SMILES	other results
0.0135 µM	CCOc1cccnc1Oc1cncc(-c2ncc(C(=O)NC3(C)CCS(=O)(=O)C3)cn2)c1 (centres unmarked) [Example 3.1, 2-(5-((3-ethoxypyridin-2-yl)oxy)pyridin-3-yl)-N-(3-methyl-1,1-dioxidotetrahydrothiophen-3-yl)pyrimidine-5-carboxamide]	
0.083 µM	CCOc1cccnc1Oc1cncc(-c2ncc(C(=O)NC(C)(C)CO)nn2)c1 [Example 7, 3-{5-[(3-ethoxypyridin-2-yl)oxy]pyridin-3-yl}-N-(1-hydroxy-2-methylpropan-2-yl)-1,2,4-triazine-6-carboxamide]	
	CCOc1cccnc1Oc1cncc(-c2ncc(C(=O)N[C@H]3CCOC3)cn2)c1 [Example 1, (S)-2-(5-((3-ethoxypyridin-2-yl)oxy)pyridin-3-yl)-N-(tetrahydrofuran-3-yl)pyrimidine-5-carboxamide]	IC50 (DGAT2): 0.0028 µM
	CCOc1ccccc1O[C@@H]1CCCN(c2ncc(C(=O)NC(C)(C)CO)cn2)C1 [WO2015140658 Example 19.21, reference compound]	microsomal CLint [1]: 121 µL/min/mg; IC50 (human DGAT2 (hDGAT2); [3]): 0.0079 µM
0.238 µM	CCOc1nccnc1Oc1cncc(-c2ncc(C(=O)NC(C)(C)CO)cn2)c1 [Example 3.5, 2-(5-((3-ethoxypyrazin-2-yl)oxy)pyridin-3-yl)-N-(1-hydroxy-2-methylpropan-2-yl)pyrimidine-5-carboxamide]	
0.0074 µM	CCOc1cccnc1Oc1cncc(-c2ncc(C(=O)NC(C)(C)C#N)cn2)c1 [Example 4, N-(2-cyanopropan-2-yl)-2-(5-((3-ethoxypyridin-2-yl)oxy)pyridin-3-yl)pyrimidine-5-carboxamide]	
0.014 µM	CCOc1cccnc1Oc1cncc(-c2ncc(C(=O)NC(C)(C)CO)cn2)c1 [Example 5, 2-(5-((3-Ethoxypyridin-2-yl)oxy)pyridin-3-yl)-N-(1-hydroxy-2-methylpropan-2-yl)pyrimidine-5-carboxamide]	microsomal CLint [1]: 18 µL/min/mg; IC50 (human DGAT2 (hDGAT2); [3]): 0.014 µM
0.0037 µM	CCOc1cc(F)cnc1Oc1cncc(-c2ncc(C(=O)N[C@H]3CCOC3)cn2)c1 [Example 8, (S)-2-(5-((3-Ethoxy-5-fluoropyridin-2-yl)oxy)pyridin-3-yl)-N-(tetrahydrofuran-3-yl)pyrimidine-5-carboxamide]	
0.0836 µM	CCOc1cccnc1Oc1cncc(-c2ncc(C(=O)NC(C)(CO)CO)cn2)c1 [Example 3.2, N-(1,3-dihydroxy-2-methylpropan-2-yl)-2-(5-((3-ethoxypyridin-2-yl)oxy)pyridin-3-yl)pyrimidine-5-carboxamide]	
0.196 µM	CCOc1cccnc1Oc1cncc(-c2ncc(C(=O)NC3CCS(=O)(=O)C3)cn2)c1 (centres unmarked) [Example 3.3, N-(1,1-dioxidotetrahydrothiophen-3-yl)-2-(5-((3-ethoxypyridin-2-yl)oxy)pyridin-3-yl)pyrimidine-5-carboxamide]	
0.0354 µM	CCOc1cccnc1Oc1cncc(-c2ncc(C(=O)NC(C)(C)CS(C)(=O)=O)cn2)c1 [Example 3.6, 2-(5-((3-ethoxypyridin-2-yl)oxy)pyridin-3-yl)-N-(2-methyl-1-(methylsulfonyl)propan-2-yl)pyrimidine-5-carboxamide]	

SMILES	IC50 (human DGAT2 (hDGAT2); [2])	other results
CCOc1cccnc1Oc1cncc(-c2ncc(C(=O)N[C@@H]3CCOC3)cn2)c1 [Example 2, (R)-2-(5-((3-Ethoxypyridin-2-yl)oxy)pyridin-3-yl)-N-(tetrahydrofuran-3-yl)pyrimidine-5-carboxamide]	0.2 µM	
CCOc1cccnc1Oc1cncc(-c2ncc(C(=O)N[C@H]3CCOC3)nn2)c1 [Example 3.4, (S)-3-(5-((3-ethoxypyridin-2-yl)oxy)pyridin-3-yl)-N-(tetrahydrofuran-3-yl)-1,2,4-triazine-6-carboxamide]	0.181 µM	
O=C(N[C@H]1CCOC1)c1cnc(-c2cncc(Oc3ncccc3OCCF)c2)nc1 [Example 3.7, (S)-2-(5-((3-(2-fluoroethoxy)pyridin-2-yl)oxy)pyridin-3-yl)-N-(tetrahydrofuran-3-yl)pyrimidine-5-carboxamide]	0.0665 µM	
